Measured values: patent publication US20030203975A1, “Anti-cancer agents” (priority 1998, published 2003)

How the values were obtained:
[1] = test system: DNA: Calf thymus sodium salt; experiment: DNA binding assay, ethidium bromide displacement; parameters: key: NB = Not binding; details: concentration required to displace 50% of the ethidium bromide; 20 μM DNA, 2 μM dye
Protocol: (§1) The propensity of selected compounds to bind to DNA in the absence of topos was measured in order to identify compounds that would bind weakly, or not at all. […] A […] was used determine binding constants of the compound to DNA by displacement of either ethidium bromide (an intercalator) or Hoechst dye 33258 (a groove binder) which form a DNA-bound fluorescent complex measured by fluorescence spectroscopy.
(§2) DNA Binding Assay Protocol
(§3) In order to detect the strength and mode of anthraquinone compound binding to DNA the displacement of known DNA binders was detected by measuring the fluorescence of a DNA/fluorescent compound complex. The addition of known concentrations of ethidium bromide, an interchelator, and Hoescht Dye, a groove binder, cause a fluorescent DNA/binder complex that can be detected and the fluorescence quantified. The addition of anthraquinone compounds displaces the interchelators or groove binders, depending on the compound mode of DNA binding, and therefore reduces the fluorescence accordingly. The preferred binding action of compounds can be quantified by determining the reduction in fluorescence resulting from a given concentration of compound. The quantification of a compounds ability to bind to DNA is expressed, as the concentration required to displace 50% of the ethidium bromide or Hoescht Dye, thus reducing the fluorescence by 50%. Therefore, the values produced are QE50 for ethidium, bromide, or QH50 for Hoescht Dye.
(§4) Compound: 300, 60, 10 and 10/6gM (1.66 μM) solution concentrations were prepared for use in the assay to produce a range of compound. Concentrations. 100, 200 and 300 μl of each dilution were used in the assay reaction. This provides a range of concentrations: −30, 20, 10, 6, 4, 2, 1, 0.67, 0.33, 0.17, 0.11, 0.06, 0.00 μM in the assay environment. Intermediate concentrations can be utilised to enhance the accuracy of the displacement concentration determination.
(§5) Buffer: 100 mM Tris, NaCI 500 mM. DNA: Calf thymus sodium salt. Stock solution of 200 μM was prepared in 10× assay buffer. Dilution of DNA therefore provided the correct concentration of assay buffer in the assay cell.300 μg DNA was used in 3 ml reaction mixture therefore 20 μM DNA concentration. Hoescht Dye 2 μM final concentration, therefore 100 μl of a 60 μM stock solution was added to a 3 ml assay. Ethidium Bromide 2 μM final concentration therefore 100 μl of a 60 μM stock solution was added to a 3 ml assay. Distilled H2O Water was added to produce 3 ml reaction volume. Order of addition: 1. DNA, 2. Water, 3. Drug, 4. Dye
(§6) The assay was completed with both Hoescht Dye and Ethidium. Bromide for each compound. The ethidium bromide is a DNA inter-chelator, Hoescht Dye is a minor groove binder. 100, 200 and […] of the lowest compound dilution was assayed. This procedure was repeated with all further dilution's. This provided a curve of fluorescence intensity decrease with increasing compound concentration. QE50 and QH50 values were determined by extrapolating the concentration of compound at the point where the fluorescence intensity was reduced by 50%. Controls involving compound only and ethidium. bromide or Hoechst Dye without compound were carried out for each experiment. Two readings for each concentration of compound were performed per experiment, each experiment was repeated at least three times. Fluorometer: Perkin Elmer Luminescence Spectrometer LS 50B.

[2] = test system: MAC 15A adenocarcinoma of the colon; experiment: In vitro chemosensitivity against MAC 15A adenocarcinoma (MTT assay); type: cell-based; details: Mus musculus, MAC15A, 96 hours continuous exposure
Protocol: In Vitro Activity Against MAC 15A Adenocarcinoma.
MAC 15A cells were grown in RPMI 1640 medium supplemented with 10% foetal calf serum containing a 1% antibiotic mixture under standard tissue culture conditions and were maintained at 37° C. in a humidified atmosphere of 5% CO2 in air. Cells were harvested from a stock culture in exponential growth phase and plated in 96-well flat-bottomed plates to achieve a final density of 2×10^3 cells per well. After 2 hours incubation medium was replaced with either fresh medium containing 0.5% DMSO (control) or medium containing test compound dissolved in DMSO at a concentrations from 10 mM to 1 nM. Chemosensitivity was assessed using MTT assay by the method of Plumb et al Cancer Research 49 (1989) 4435-4440.
Following 96 hours continuous exposure to drug at 37° C. cells were incubated with fresh drug-free medium immediately prior to addition of MTT solution (5 mg/ml). Medium and MTT were removed after 4 hours and 150 μl of DMSO was added. For each plate the absorbance of the resulting solution was measured at the analytical wavelength 550 nm for formazan product, using a Labsystem Mutiskan. IC50 values were obtained from growth curves of drug concentration against % survival and are expressed in μm.

[3] = test system: DNA: Calf thymus sodium salt; experiment: DNA binding assay, Hoechst dye displacement; parameters: key: NB = Not binding; details: concentration required to displace 50% of the Hoescht Dye; 20 μM DNA, 2 μM dye
Protocol: as §1, §2, §3, §4, §5, §6

Topoisomerase IIβ [4] = target: T1, Topoisomerase IIβ (Homo sapiens, UniProt Q02880); experiment: Topo II relaxation assay; type: biochemical; parameters: key: ‘—’ = Not active; details: unit not given; compound at 1, 10, 25 and 50 μM in protocol
T1 sequence (Q02880 whole entry): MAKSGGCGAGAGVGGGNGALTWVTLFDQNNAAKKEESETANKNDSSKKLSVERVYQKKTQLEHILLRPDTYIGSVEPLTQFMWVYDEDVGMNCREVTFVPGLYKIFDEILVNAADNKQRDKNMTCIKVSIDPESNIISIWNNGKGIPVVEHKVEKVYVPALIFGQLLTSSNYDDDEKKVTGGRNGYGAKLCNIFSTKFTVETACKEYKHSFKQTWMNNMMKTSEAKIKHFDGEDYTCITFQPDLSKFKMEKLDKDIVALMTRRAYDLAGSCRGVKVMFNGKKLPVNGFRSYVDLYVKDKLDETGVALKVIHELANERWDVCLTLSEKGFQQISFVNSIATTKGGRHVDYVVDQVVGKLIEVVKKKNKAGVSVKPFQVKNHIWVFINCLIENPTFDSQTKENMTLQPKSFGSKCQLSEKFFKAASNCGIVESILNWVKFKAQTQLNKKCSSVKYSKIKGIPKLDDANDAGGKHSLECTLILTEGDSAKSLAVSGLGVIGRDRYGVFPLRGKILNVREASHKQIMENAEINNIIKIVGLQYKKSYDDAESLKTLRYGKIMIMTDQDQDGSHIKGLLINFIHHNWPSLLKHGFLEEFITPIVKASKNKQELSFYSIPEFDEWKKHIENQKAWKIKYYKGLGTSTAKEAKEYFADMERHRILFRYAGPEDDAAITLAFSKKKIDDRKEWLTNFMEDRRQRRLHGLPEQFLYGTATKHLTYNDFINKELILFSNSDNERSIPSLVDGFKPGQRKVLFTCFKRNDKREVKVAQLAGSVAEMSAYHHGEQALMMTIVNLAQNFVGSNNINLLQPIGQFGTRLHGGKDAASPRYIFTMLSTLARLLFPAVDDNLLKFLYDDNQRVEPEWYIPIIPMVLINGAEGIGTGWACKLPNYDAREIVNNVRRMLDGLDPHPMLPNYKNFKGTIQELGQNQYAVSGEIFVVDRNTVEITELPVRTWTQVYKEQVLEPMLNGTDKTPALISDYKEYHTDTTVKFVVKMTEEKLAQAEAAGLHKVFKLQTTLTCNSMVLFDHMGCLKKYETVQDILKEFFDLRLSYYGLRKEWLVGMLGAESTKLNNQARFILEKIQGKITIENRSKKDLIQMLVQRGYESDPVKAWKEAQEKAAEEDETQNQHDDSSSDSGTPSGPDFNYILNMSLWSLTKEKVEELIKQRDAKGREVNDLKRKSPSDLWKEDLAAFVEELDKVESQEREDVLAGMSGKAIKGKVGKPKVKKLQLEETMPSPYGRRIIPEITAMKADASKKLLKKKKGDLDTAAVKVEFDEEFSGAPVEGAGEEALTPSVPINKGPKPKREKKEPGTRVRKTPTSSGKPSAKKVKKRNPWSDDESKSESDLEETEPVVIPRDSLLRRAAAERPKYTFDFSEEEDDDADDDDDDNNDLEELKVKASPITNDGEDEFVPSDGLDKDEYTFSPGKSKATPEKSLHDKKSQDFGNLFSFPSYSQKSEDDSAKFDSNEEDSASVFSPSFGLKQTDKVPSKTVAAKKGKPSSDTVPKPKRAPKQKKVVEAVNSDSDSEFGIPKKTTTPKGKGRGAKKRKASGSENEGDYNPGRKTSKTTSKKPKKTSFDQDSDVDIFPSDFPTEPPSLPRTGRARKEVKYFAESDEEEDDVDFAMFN
Protocol: (§7) Topo II Relaxation Assay Protocol
(§8) 10×Topo II Relaxation Buffer
(§9) 500 mM Tris-HCl (pH 7.5); 100 mM mgCI2; 50 mM EDTA; 300 mg/mI BSA; 10 mM DTT; −20° C.

Topoisomerase IIα [5] = target: T2, Topoisomerase IIα (Homo sapiens, UniProt P11388); experiment: Topo II relaxation assay; type: biochemical; parameters: key: ‘—’ = Not active; details: unit not given; compound at 1, 10, 25 and 50 μM in protocol
T2 sequence (P11388 whole entry): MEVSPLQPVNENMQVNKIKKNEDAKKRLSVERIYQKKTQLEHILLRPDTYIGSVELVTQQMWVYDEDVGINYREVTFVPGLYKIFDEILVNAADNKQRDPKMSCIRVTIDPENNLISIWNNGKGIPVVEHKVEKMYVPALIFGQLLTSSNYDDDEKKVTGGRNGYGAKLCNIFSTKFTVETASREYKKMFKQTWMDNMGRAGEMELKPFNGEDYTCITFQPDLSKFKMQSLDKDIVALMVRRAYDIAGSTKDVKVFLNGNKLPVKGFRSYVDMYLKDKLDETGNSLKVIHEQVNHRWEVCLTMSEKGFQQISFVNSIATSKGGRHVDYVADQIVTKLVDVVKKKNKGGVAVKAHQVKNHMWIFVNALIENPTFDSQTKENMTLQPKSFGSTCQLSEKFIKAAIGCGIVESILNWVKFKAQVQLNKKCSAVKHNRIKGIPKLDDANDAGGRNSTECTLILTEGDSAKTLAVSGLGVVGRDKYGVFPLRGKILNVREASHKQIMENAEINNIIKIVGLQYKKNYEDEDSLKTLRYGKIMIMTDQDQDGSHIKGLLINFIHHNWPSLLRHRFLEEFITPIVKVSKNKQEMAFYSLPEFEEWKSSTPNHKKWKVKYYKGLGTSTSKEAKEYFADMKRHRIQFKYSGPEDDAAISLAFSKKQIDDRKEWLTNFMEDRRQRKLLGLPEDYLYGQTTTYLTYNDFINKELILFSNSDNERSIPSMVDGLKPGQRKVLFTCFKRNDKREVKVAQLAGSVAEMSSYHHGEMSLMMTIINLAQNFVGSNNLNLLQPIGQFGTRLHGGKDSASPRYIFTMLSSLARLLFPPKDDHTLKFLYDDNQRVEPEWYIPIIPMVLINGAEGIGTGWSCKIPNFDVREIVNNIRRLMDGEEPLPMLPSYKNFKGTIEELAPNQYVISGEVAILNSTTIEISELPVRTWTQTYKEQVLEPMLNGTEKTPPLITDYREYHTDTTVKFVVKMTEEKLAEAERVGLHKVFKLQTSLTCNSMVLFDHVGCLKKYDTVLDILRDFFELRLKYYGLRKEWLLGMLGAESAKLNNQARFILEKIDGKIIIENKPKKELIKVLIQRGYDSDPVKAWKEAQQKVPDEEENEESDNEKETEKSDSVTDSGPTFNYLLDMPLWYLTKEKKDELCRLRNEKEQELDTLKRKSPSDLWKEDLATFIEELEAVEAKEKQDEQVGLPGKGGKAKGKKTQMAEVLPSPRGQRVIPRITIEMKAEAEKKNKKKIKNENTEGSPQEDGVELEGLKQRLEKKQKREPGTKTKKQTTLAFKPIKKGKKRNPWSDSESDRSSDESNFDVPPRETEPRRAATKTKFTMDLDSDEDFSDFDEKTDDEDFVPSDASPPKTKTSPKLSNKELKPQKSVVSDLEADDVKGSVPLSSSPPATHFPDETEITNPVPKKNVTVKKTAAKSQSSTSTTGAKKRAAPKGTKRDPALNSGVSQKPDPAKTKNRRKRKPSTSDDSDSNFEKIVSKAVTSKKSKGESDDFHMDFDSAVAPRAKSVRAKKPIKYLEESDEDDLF
Protocol: as §7, §8, §9

Topoisomerase IIβ [6] = target: T1, Topoisomerase IIβ; experiment: Topo II decatenation assay; type: biochemical; details: unit not given; kDNA substrate; compound at 1, 10, 25 and 50 μM in protocol
Protocol: (§10) Topisomerase Decatenation Assay.
(§11) This method uses catenated DNA substrate prepared from the kinetoplast of the insect trypanosome Crithidia fasciculata. Upon incubation with topo II, which engages DNA in a double stranded breakage-reunion cycle, DNA minicircles are released. Addition of topo-inhibiting drugs may prevent decatenation.
(§12) Topo II Decatenation Assay Protocol
(§13) This assay is the same as the Topo II Relaxation assay except that the pBR 322 Plasmid DNA is replaced with kDNA.
(§14) Results are included in Table 3 below

Topoisomerase IIα [7] = target: T2, Topoisomerase IIα; experiment: Topo II decatenation assay; type: biochemical; parameters: key: ‘—’ = Not active; details: unit not given; kDNA substrate; compound at 1, 10, 25 and 50 μM in protocol
Protocol: as §10, §11, §12, §13, §14

Topoisomerase I = target: T3, Topoisomerase I (Homo sapiens, UniProt P11387); experiment: Topo I cleavage assay; type: biochemical; details: at 10 μM
T3 sequence (P11387 1-765): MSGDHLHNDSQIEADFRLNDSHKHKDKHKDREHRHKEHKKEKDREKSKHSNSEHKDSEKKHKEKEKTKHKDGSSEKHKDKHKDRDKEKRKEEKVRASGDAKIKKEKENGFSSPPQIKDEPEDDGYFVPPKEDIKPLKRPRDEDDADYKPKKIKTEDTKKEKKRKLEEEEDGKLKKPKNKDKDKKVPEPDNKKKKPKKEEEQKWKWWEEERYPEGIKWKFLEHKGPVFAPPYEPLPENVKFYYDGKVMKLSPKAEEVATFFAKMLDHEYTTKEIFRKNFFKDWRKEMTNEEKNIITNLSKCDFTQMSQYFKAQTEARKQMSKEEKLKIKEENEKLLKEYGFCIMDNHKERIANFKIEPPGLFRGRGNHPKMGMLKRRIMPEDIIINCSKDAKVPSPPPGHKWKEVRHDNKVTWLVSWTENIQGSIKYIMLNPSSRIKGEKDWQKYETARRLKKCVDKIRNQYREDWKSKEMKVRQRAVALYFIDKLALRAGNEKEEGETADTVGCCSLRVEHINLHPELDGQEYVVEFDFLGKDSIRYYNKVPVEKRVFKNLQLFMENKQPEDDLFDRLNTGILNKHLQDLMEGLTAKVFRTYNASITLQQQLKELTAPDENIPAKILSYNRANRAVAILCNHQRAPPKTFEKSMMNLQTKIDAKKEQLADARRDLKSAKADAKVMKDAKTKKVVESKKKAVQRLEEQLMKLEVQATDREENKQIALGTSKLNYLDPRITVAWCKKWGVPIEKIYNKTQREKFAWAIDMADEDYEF

Compound | QE50 Intercalating [1] | IC50 [2] [µM] | QH50 Minor groove binding [3] | TopIIβ Relax. (Topoisomerase IIβ [4]) | TopIIα Relax. (Topoisomerase IIα [5]) | further results
C[C@H](N)C(=O)OCCCNc1cccc2c1C(=O)c1ccccc1C2=O.O=C(O)C(F)(F)F [Example 29, 1-[3-(L-alanyloxy)propylamino]anthracene-9,10-dione trifluoroacetate] | NB | 9.7 | NB |  |  | melting point: 126 °C
N[C@@H](Cc1ccccc1)C(=O)OCCNc1cccc2c1C(=O)c1ccccc1C2=O.O=C(O)C(F)(F)F [Example 33, 1-[2-(L-phenylalanyloxy)ethylamino]anthracene-9,10-dione trifluoro-acetate] | NB |  | NB |  |  | 
CC(C)[C@H](N)C(=O)OCCCNc1cccc2c1C(=O)c1ccccc1C2=O.O=C(O)C(F)(F)F [Example 35, 1-[3-(L-valyloxy)propylamino]anthracene-9,10-dione trifluoroacetate] |  | 2.9 |  | — | — | 
CC(C)[C@@H](N)C(=O)OCCCNc1cccc2c1C(=O)c1ccccc1C2=O.O=C(O)C(F)(F)F [Example 37, 1-[3-(D-valyloxy)propylamino]anthracene-9,10-dione trifluoroacetate] |  |  |  | — | — | TopIIβ Decat. (Topoisomerase IIβ [6]): 25; TopIIα Decat. (Topoisomerase IIα [7]): —
N[C@@H](Cc1c[nH]c2ccccc12)C(=O)OCCCNc1cccc2c1C(=O)c1ccccc1C2=O.O=C(O)C(F)(F)F [Example 41, 1-[3-(L-tryptophyloxy)propylamino]anthracene-9,10-dione trifluoro-acetate] |  |  |  |  | — | 
O=C(O)C(F)(F)F.O=C1c2ccccc2C(=O)c2c(NCCCCOC(=O)[C@@H]3CCCN3)cccc21 [Example 47, 1-[4-(L-prolyloxy)butylamino]anthracene-9,10-dione trifluoroacetate] |  |  |  | 10 | 5 | 
O=C(O)C(F)(F)F.O=C1c2ccccc2C(=O)c2c(NCCCCOC(=O)[C@H]3CCCN3)cccc21 [Example 49, 1-[4-(D-prolyloxy)butylamino]anthracene-9,10-dione trifluoroacetate] |  |  |  | 25 | 25 | 
CC(C)[C@H](N)C(=O)OCCCCNc1ccc(O)c2c1C(=O)c1ccccc1C2=O.O=C(O)C(F)(F)F [Example 53, 4-hydroxy-1-[4-(L-valyloxy)butylamino]anthracene-9,10-dione tri-fluoroacetate] | 2.9 µM |  | 4.4 µM |  |  | IC50 ([2]; 96 h): 5.3 µM
CC(C)[C@H](N)C(=O)OCCCNc1ccc(O)c2c1C(=O)c1c(O)cccc1C2=O.O=C(O)C(F)(F)F [Example 57, 4,8-dihydroxy-1-[3-(L-valyloxy)propylamino]anthracene-9,10-dione trifluoroacetate] |  | 3.8 |  | 25 | — | TopIIβ Decat. (Topoisomerase IIβ [6]): 25; TopIIα Decat. (Topoisomerase IIα [7]): —
C[C@@H](N)C(=O)OCCCNc1cccc2c1C(=O)c1ccccc1C2=O.O=C(O)C(F)(F)F [Example 63, 1-[3-(D-alanyloxy)propylamino]anthracene-9,10-dione trifluoroacetate] | NB | 6.9 | NB |  |  | melting point: 134 °C
O=C(O)C(F)(F)F.O=C1c2ccccc2C(=O)c2c(NCCCOC(=O)[C@@H]3CCCN3)cccc21 [Example 67, 1-[3-(L-prolyloxy)propylamino]anthracene-9,10-dione trifluoroacetate] | NB | 8.3 | NB |  |  | melting point: 66 °C
O=C(O)C(F)(F)F.O=C1c2ccccc2C(=O)c2c(NCCCOC(=O)[C@H]3CCCN3)cccc21 [Example 69, 1-[3-(D-prolyloxy)propylamino]anthracene-9,10-dione trifluoroacetate] | NB | 10.2 | NB |  |  | melting point: 66 °C
O=C(O)C(F)(F)F.O=C1c2ccccc2C(=O)c2c(NCCOC(=O)[C@@H]3CCCN3)cccc21 [Example 137, 1-[2-(prolyloxy)ethylamino]anthracene-9,10-dione trifluoroacetate] | NB | 33.5 | NB |  |  | 
O=C1c2c(O)ccc(O)c2C(=O)c2c(NCCNCCO)ccc(NCCNCCO)c21 [Mitoxantrone, reference compound] | 0.8 ± 0.3 µM |  | 1.2 ± 0.3 µM |  |  | 
CC[C@@]1(O)C(=O)OCc2c1cc1n(c2=O)Cc2cc3ccccc3nc2-1 [campothecin, reference compound] |  |  |  |  |  | nicked plasmid (Topoisomerase I): 90%
